ChEMBL document CHEMBL1159378, “Continuing studies on the cyanobacterium Lyngbya sp.: isolation and structure determination of 15-norlyngbyapeptin A and lyngbyabellin D” (J Nat Prod, 2003)

tested on: KB; assay: Cytotoxicity against human KB cells; assay type: functional, cell-based

Row | Structure (SMILES) | IC50 [µM]
1 | CC[C@H](C)[C@@H](C(=O)N1CCC[C@H]1c1nccs1)N(C)C(=O)[C@H](CC(C)C)N(C)C(=O)[C@H](Cc1ccc(O)cc1)N(C)C(=O)/C=C(\C)OC [15-NORLYNGBYAPEPTIN A] | 1.3
2 | CCCC(=O)N[C@@H](C(C)C)[C@H](CC(=O)OC[C@@H](O)c1nc(C(=O)O[C@@H](CCCC(C)(Cl)Cl)[C@@H](C)C(=O)O[C@@H](c2nc(C(=O)OC)cs2)[C@](C)(O)CC)cs1)OC(C)=O [LYNGBYABELLIN D] | 0.1
3 | CC[C@H](C)[C@@H](C(=O)N1CCC[C@H]1c1nccs1)N(C)C(=O)[C@H](CC(C)C)N(C)C(=O)[C@H](Cc1ccc(OC)cc1)N(C)C(=O)/C=C(\C)OC [LYNGBYAPEPTIN A] | > 5
